Results from patent US4010264A, “7-[3-Substituted isoxazol-5-yl]-acetamido-cephalosporanic acids and their anti-bacterial use” (Koninklijke Nederlandsche Gist-en Spiritusfabriek N.V., priority 1970, dated 1977).
≈ marks a conversion by molar mass, not a printed value. Read-outs that look alike come from different tables or passages of the source.

Assays:
[1] = system: Bacillus subtilis ATCC 6633; test: MIC, agar serial dilution test; type: cell-based; conditions: Bacillus subtilis, ATCC6633, 24 h
[2] = system: Staphylococcus aureus A55; test: MIC, agar serial dilution test; type: cell-based; conditions: Staphylococcus aureus, A55, 24 h
[3] = system: Staphylococcus aureus A321; test: MIC, agar serial dilution test; type: cell-based; conditions: Staphylococcus aureus, A321, 24 h
[4] = system: Streptococcus haemolyticus A266; test: MIC, agar serial dilution test; type: cell-based; conditions: Streptococcus, A266, 24 h
[5] = system: Streptococcus faecalis L 80; test: MIC, agar serial dilution test; type: cell-based; conditions: Enterococcus faecalis, L80, 24 h
[6] = system: Diplococcus pneumoniae L 54; test: MIC, agar serial dilution test; type: cell-based; conditions: Streptococcus pneumoniae, L54, 24 h
Brucella melitensis A488 = test: microbe, parasite or virus in culture; type: cell-based; conditions: A488, 24 h
[7] = system: Pasteurella multocida A723; test: MIC, agar serial dilution test; type: cell-based; conditions: Pasteurella multocida, A723, 24 h
[8] = system: Klebsiella pneumoniae A809; test: MIC, agar serial dilution test; type: cell-based; conditions: Klebsiella pneumoniae, A809, 24 h
Escherichia coli 65161 = test: protection test in mice, Escherichia coli; type: in vivo, female mice (Swiss SPF); conditions: ip, 168 h; Escherichia coli 65161 i.p.; method of administration intraperitoneal
[9] = blood (serum) contents after intramuscular administration in rabbits; type: in vivo, rabbits (Nieuw Zeelander); conditions: rabbit, im, 50 mg/kg intramuscular, average, read-out: Serum level
Experimental: (§1) c. […] The rabbits were provided with "Cunicon" and water ad libitum. Each test group consisted of 3 rabbits. The dose was 50 mg/kg using water as the vehicle. […] The contents of the compound in the samples were determined microbiologically (only microbiologically detected amounts, i.e. anti-bacterially active concentrations only have been indicated).

[10] = secretion of compound in urine after intramuscular administration in rabbits; type: in vivo, rabbits (Nieuw Zeelander); conditions: rabbit, im, 50 mg/kg intramuscular, average, read-out: Secretion of compound in urine in % of the administered dose
Experimental: as §1

[11] = percentages of bound serum by ultrafiltration and dialysis; type: in vitro ADME; conditions: read-out: percentage of bound serum (converted)
in vivo = conditions: mouse, ip
[12] = system: Staphylococcus aureus A355 (penicillinase-producing); test: MIC, agar serial dilution test; conditions: 24 h
[13] = system: Staphylococcus aureus L160a (penicillinase-producing); test: MIC, agar serial dilution test; conditions: 24 h
[14] = system: Staphylococcus aureus A 321; test: in vivo infection test in mice; conditions: A321, in Mus musculus
[15] = system: Staphylococcus aureus A 2001; test: in vivo infection test in mice; conditions: A2001, in Mus musculus
[16] = system: Staphylococcus aureus A 2000; test: in vivo infection test in mice; conditions: A2000, in Mus musculus
[17] = system: Salmonella typhi murium R 172; test: in vivo infection test in mice; conditions: Salmonella enterica, in Mus musculus
[18] = system: Pseudomonas aeruginosa A 1058; test: in vivo infection test in mice; conditions: A1058, in Mus musculus
Proteus mirabilis O.T. = test: in vivo infection test in mice; conditions: in Mus musculus
[19] = system: Staphylococcus aureus A 2001; test: protection test in mice, Staphylococcus aureus; conditions: Staphylococcus aureus, A2001, in Mus musculus, sc, 168 h

SMILES: CC(=O)OCC1=C(C(=O)O)N2C(=O)[C@@H](NC(=O)Cc3cccs3)[C@H]2SC1 [Cephalotin, reference compound]
- MIC [1]: 0.03 µg/mL (≈ 0.0757 µM)
- MIC [2]: 0.25 µg/mL (≈ 0.631 µM)
- MIC [3]: 0.25 µg/mL (≈ 0.631 µM)
- MIC [4]: 0.06 µg/mL (≈ 0.151 µM)
- MIC [5]: 25 µg/mL (≈ 63.1 µM)
- MIC [6]: 0.25 µg/mL (≈ 0.631 µM)
- MIC (Brucella melitensis A488): 6 µg/mL (≈ 15.1 µM)
- MIC [7]: 0.25 µg/mL (≈ 0.631 µM)
- MIC [8]: 0.5 µg/mL (≈ 1.26 µM)
- ED50 (Escherichia coli 65161): 115 mg/kg
- concentration at 0.5 h ([9]; after 1/2 hr.): 33900 ng/mL
- concentration at 0.25 h ([9]; after 1/4 hr.): 73800 ng/mL
- concentration at 1 h ([9]; after 1 hr.): 8500 ng/mL
- concentration at 2 h ([9]; after 2 hrs.): < 1100 ng/mL
- concentration at 4 h ([9]; after 4 hrs.): < 1000 ng/mL
- dose excreted at 6 h ([10]; after 6 hrs.): 22.2%
- dose excreted at 27 h ([10]; after 27 hrs.): 26.9%
- fraction unbound ([11]; dialysis): ~0.3
- fraction unbound ([11]; ultrafiltration): ~0.3
- LD50 (in vivo): 6000 to 8000 mg/kg
- MIC [12]: 1 µg/mL (≈ 2.52 µM)
- MIC [13]: 1 µg/mL (≈ 2.52 µM)
- ED50 ([14]; ip): 1.9 mg/kg
- ED50 ([14]; po): 14.7 mg/kg
- ED50 ([14]; sc): 16.2 mg/kg
- ED50 ([15]; ip): 27.1 mg/kg
- ED50 ([15]; po): > 68.1 mg/kg
- ED50 ([16]; ip): 20 mg/kg
- ED50 ([16]; po): 147 mg/kg
- ED50 ([16]; sc): 110 mg/kg
- ED50 ([17]; ip): 79.4 mg/kg
- ED50 ([17]; sc): ~200 mg/kg
- ED50 ([18]; ip): > 215 mg/kg
- ED50 ([18]; sc): > 215 mg/kg
- ED50 (Proteus mirabilis O.T.; ip): 79.4 mg/kg
- ED50 (Proteus mirabilis O.T.; sc): 68.1 mg/kg
- ED50 [19]: 43 mg/kg
